Columns and labels:
[1] = system: MCF7-GFP cells; assay: Drug treatment of fluorescently-labeled MCF7-fibroblast co-cultures vs mono-cultures (GFP fluorescence, plate-reader); type: cell-based, human; details: 72 hours; for Sensitivity of MCF7-GFP cells in co-culture with fibroblasts relative to mono-cultures: at 500 μM drug, GFP fluorescence, hTERT-BJ1-RFP fibroblast co-culture vs MCF7-GFP mono-culture
Text: To directly test this hypothesis, a new assay system may be used to monitor the sensitivity of cancer cells to drug treatment, in the presence or absence of fibroblasts. For this purpose, hTERT-BJ1-fibroblasts expressing RFP (red fluorescent protein) and MCF7 cells expressing GFP (green fluorescent protein) were generated. Representative images of these mono-cultures are shown in FIGS. 14A (hTERT-BJ1-RFP) and 14B (MCF7-GFP). The hTERT-BJ1-fibroblasts expressing RFP and MCF7 cells expressing GFP were generated by lentiviral transduction. RFP, red fluorescent protein; GFP, green fluorescent protein.
Validation via drug treatment of fluorescently-labeled MCF7-fibroblast co-cultures: hTERT-BJ1-RFP cells and MCF7-GFP cells were first generated by stable transduction with lenti-viral vectors. Then, these cells were plated into clear flat bottom 96-well black microplates (Corning; CLS3603). Mono-cultures were generated by plating either hTERT-BJ1-RFP (8,000 cells/well) or MCF7-GFP cells (8,000 cells/well). In parallel, co-cultures were generated by co-plating hTERT-BJ1-RFP (6,000 cells/well) with MCF7-GFP (2,000 cells/well). The next day, the plates were treated with either Doxycycline or Azithromycin (or vehicle controls) and were incubated for 72 hours at 37° C. The cell culture plates were then read with a plate-reader at 545/590 nm (for RFP) and at 490/510 nm (for GFP). Background readings were subtracted from the fluorescent signal and data were then normalized to controls.

[2] = system: MCF7-fibroblasts co-cultures; details: MCF7-fibroblast co-cultures; Tamoxifen, Fulvestrant; cited from earlier work

Compound: CC[C@H]1OC(=O)[C@H](C)[C@@H](O[C@H]2C[C@@](C)(OC)[C@@H](O)[C@H](C)O2)[C@H](C)[C@@H](O[C@@H]2O[C@H](C)C[C@H](N(C)C)[C@H]2O)[C@](C)(O)C[C@@H](C)CN(C)[C@H](C)[C@@H](O)[C@]1(C)O [Azithromycin]
- Sensitivity of MCF7-GFP cells in co-culture with fibroblasts relative to mono-cultures [1]: ~8 fold

Compound: C[C@H]1c2cccc(O)c2C(=O)C2=C(O)[C@]3(O)C(=O)C(C(N)=O)=C(O)[C@@H](N(C)C)[C@@H]3[C@@H](O)[C@@H]21 [Doxycycline]
- Concentration at which increased sensitivity of MCF7-GFP cells in co-culture was first observed ([1]; not observed at 50 μM): 100 µM
- Sensitivity of MCF7-GFP cells in co-culture with fibroblasts relative to mono-cultures [1]: ~5 fold

Compound: CN(C)C(=N)N=C(N)N [Metformin]
- Effect on resistance of co-cultures to apoptosis induced by hormonal therapies [2]: reversed

Source: patent US11672810B2, “Therapeutics and methods for predicting and overcoming endocrine resistance in breast cancer” (LUNELLA BIOTECH, INC., priority 2019, dated 2023)
